According to ChEMBL document CHEMBL1131422, “N-(2-Benzoylphenyl)-L-tyrosine PPARgamma agonists. 1. Discovery of a novel series of potent antihyperglycemic and antihyperlipidemic agents” (J Med Chem, 1998):
The source made the active and inactive calls. The rule behind the calls is not given here.

Columns and labels:
[1] = molecular target: T1, Peroxisome proliferator-activated receptor gamma (Homo sapiens, UniProt P37231)
T1 sequence (P37231 whole entry): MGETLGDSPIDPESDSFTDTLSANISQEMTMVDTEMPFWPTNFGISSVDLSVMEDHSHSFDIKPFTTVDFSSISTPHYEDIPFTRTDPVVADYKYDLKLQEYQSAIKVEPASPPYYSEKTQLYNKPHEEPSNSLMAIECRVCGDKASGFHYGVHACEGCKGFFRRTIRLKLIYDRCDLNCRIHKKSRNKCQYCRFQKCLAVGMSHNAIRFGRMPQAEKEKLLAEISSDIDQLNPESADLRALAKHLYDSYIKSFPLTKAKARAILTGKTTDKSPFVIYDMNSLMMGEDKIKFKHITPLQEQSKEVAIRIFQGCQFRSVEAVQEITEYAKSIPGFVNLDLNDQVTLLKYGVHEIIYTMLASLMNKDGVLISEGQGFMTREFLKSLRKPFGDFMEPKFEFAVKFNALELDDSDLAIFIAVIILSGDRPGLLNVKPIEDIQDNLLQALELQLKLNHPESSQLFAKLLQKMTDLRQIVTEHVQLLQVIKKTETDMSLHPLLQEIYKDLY
Description: Activation of peroxisome proliferator activated receptor gamma measured by induction of 50% of maximum alkaline phosphatase activity, transfection assay in CV-1 cells

[2] = molecular target: T1, Peroxisome proliferator-activated receptor gamma; remark: listed apart in the source
Description: In vitro binding to peroxisome proliferator activated receptor gamma (PPAR gamma) using [3H]-BRL 49653 as radioligand in scintillation proximity assay (SPA)

[3] = molecular target: T2, Peroxisome proliferator-activated receptor gamma (Homo sapiens) (UniProt P37231); assay: Compound was tested functionally in vitro for inducing 50% of the maximum alkaline phosphatase activity (Transactivation) against Peroxisome proliferator activated receptor gamma using transfection assay in CV-1 cells; IA = Inactive at 10e-4 M; assay type: functional, cell-based
T2 sequence (whole entry): T1 sequence (P37231 whole entry)

EC50 [1] [µM] | Ki [2] [µM] | Log EC50 [3] | Structure (SMILES)
0.447 | – | – | CN(CCOc1ccc(CC(Nc2ccccc2C(O)c2ccccc2)C(=O)O)cc1)c1ccccn1 (stereo unspecified)
0.0501 | 0.00646 | – | CCc1ccc(CCOc2ccc(C[C@H](Nc3ccccc3C(=O)c3ccccc3)C(=O)O)cc2)nc1
– | 1.26 | inactive | O=C(c1ccccc1)c1ccc(N[C@@H](Cc2ccc(OCc3ccccc3)cc2)C(=O)O)cc1
16.6 | 0.162 | – | O=C(c1ccccc1)c1ccccc1N[C@@H](Cc1ccc(OCc2ccccc2)cc1)C(=O)O
0.692 | 0.759 | – | COC(=O)[C@H](Cc1ccc(OCc2ccccc2)cc1)/N=C(C)/C=C(\O)c1ccccc1
0.933 | 0.0324 | – | CN(CCOc1ccc(CC(Oc2ccccc2C(=O)c2ccccc2)C(=O)O)cc1)c1nc2ccccc2o1 (stereo unspecified)
0.00316 | 0.00427 | – | Cc1oc(-c2ccccc2)nc1CCOc1ccc(CC2SC(=O)NC2=O)cc1 (stereo unspecified)
– | 1.95 | inactive | C/C(O)=C/C(C)=N/[C@@H](Cc1ccc(OCc2ccccc2)cc1)C(=O)O
– | > 3.16 | inactive | COC(=O)[C@H](Cc1ccc(OCc2ccccc2)cc1)/N=C(\C)C1=C(O)c2ccccc2CC1
– | > 3.16 | inactive | COC(=O)[C@H](Cc1ccc(OCc2ccccc2)cc1)Nc1ccccc1C(=O)Nc1ccccc1
– | > 3.16 | inactive | COC(=O)[C@H](Cc1ccc(OCc2ccccc2)cc1)Nc1ccccc1C(=O)OCc1ccccc1
10.2 | 0.794 | – | O=C(O)[C@H](Cc1ccc(OCc2ccccc2)cc1)/N=C1\CCCC\C1=C(\O)c1ccccc1
0.851 | 0.162 | – | CN(CCOc1ccc(CC(Nc2ccccc2/C(=N/N)c2ccccc2)C(=O)O)cc1)c1ccccn1 (stereo unspecified)
0.49 | 0.0851 | – | CN(CCOc1ccc(CC(Nc2cccc3c2C(=O)c2ccccc2-3)C(=O)O)cc1)c1nc2ccccc2o1 (stereo unspecified)
0.49 | 1.32 | – | CC(/C=C(\O)c1ccccc1)=N\[C@@H](Cc1ccc(OCc2ccccc2)cc1)C(N)=O
0.617 | 0.0513 | – | CC1(COc2ccc(C[C@H](Nc3ccccc3C(=O)c3ccccc3)C(=O)O)cc2)CCCCC1
0.0288 | 0.00331 | – | CN(CCOc1ccc(CC(Nc2ccccc2C(=O)Cc2ccccc2)C(=O)O)cc1)c1nc2ccccc2o1 (stereo unspecified)
1.38 | 0.0331 | – | CN(CCOc1ccc(CC(Sc2ccccc2C(=O)c2ccccc2)C(=O)O)cc1)c1nc2ccccc2o1 (stereo unspecified)
0.00912 | 0.00525 | – | Cc1c(C)c2c(c(C)c1O)CCC(C)(COc1ccc(C[C@H](Nc3ccccc3C(=O)c3ccccc3)C(=O)O)cc1)O2 (stereo partly specified)
0.107 | 0.00372 | – | CN(CCOc1ccc(CC(Nc2ccccc2Oc2ccccc2)C(=O)O)cc1)c1nc2ccccc2o1 (stereo unspecified)
– | > 3.16 | inactive | O=C(c1ccccc1)c1cccc(N[C@@H](Cc2ccc(OCc3ccccc3)cc2)C(=O)O)c1
0.229 | 0.0117 | – | CC(/C=C(\O)c1ccccc1)=N\[C@@H](Cc1ccc(OCc2ccccc2)cc1)C(=O)O (stereo in doubt; 2)
2.51 | > 3.16 | – | N[C@@H](Cc1ccc(OCc2ccccc2)cc1)C(=O)O
– | > 3.16 | inactive | O=C(O)[C@H](Cc1ccc(OCc2ccccc2)cc1)Nc1ccccc1Cc1ccccc1
1.82 | 0.123 | – | CN(CCOc1ccc(CC(Nc2ccccc2S(=O)(=O)c2ccccc2)C(=O)O)cc1)c1nc2ccccc2o1 (stereo unspecified)
21.9 | > 3.16 | – | CC(/C=C(\O)c1ccccc1)=N\[C@@H](Cc1ccc(OCc2ccccc2)cc1)C(=O)O (stereo in doubt)
